Data on 23 molecules can be found in US20120277312A1, “Ethylgallate and Related Compounds as a Treatment for Sepsis and Septic Shock” (priority 2009, published 2012).

“Also recorded” adds a separate entry of the source.

Experiment [1] concerns lysozyme's vasodilatory effect in canine carotid artery preparation. Description: Lysozyme-induced vasodilation in canine carotid artery preparation (in-vitro). Particulars: canine carotid artery preparation, in-vitro. As for the experimental part:
Lysozyme produces vasodilation by intrinsically generating hydrogen peroxide (H2O2) that leads to activation of signaling pathways resulting in these hemodynamic effects (7).
Ethyl gallate is added to food as an antioxidant. It is the ethyl ester of gallic acid. Though found naturally in a variety of plant sources including walnuts (8), ethyl gallate is produced from gallic acid and ethanol (9). […] It is of note that if a substance could not inhibit lysozyme's effect in-vitro, then it would be worthless to pursue an in-vivo study.

Another experiment addresses T1, lysozyme (Homo sapiens, UniProt P61626).
T1 sequence (P61626 19-148): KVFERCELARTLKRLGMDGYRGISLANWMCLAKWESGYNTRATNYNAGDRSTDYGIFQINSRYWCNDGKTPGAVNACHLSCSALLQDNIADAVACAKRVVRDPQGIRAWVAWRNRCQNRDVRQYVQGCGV
Kind of experiment: Lysozyme-induced hydrogen peroxide generation measured by Ultra Amplex Red assay. Type of experiment: biochemical. Particulars: 6.5×10^−6 mol/L lysozyme.

Experiment [2] has as its system POX-induced vasodilation in carotid and superior mesenteric arterial preparations. Description: Peroxacetic acid (POX)-induced vasodilation in carotid and superior mesenteric arterial preparations. More on the design: species or system canine. The source says:
POX is a hydroperoxide (slightly different from the molecule of hydrogen peroxide) that also may be released in septic shock by macrophages and inflammatory cells. […] However, the pathway by which POX caused vasodilation is much different than that caused by lysozyme. […] To some extent, therefore, the improvement in hemodynamics previously observed when ethyl-gallate was infused in our in-vivo study could have also been related to ethyl-gallate's inhibition of the POX pathway in addition to ethyl-gallate's inhibitory-effect on lysozyme mediated pathways.
The only similarity found between lysozyme and POX is that POX's mechanism of action is also independent of the endothelium and nitric oxide formation, since we could not prevent POX's vasodilatory effect by removal of the endothelium or by nitric oxide inhibition. In contrast to lysozyme, POX seems to cause vasodilation is by activation of an enzyme in the vascular tissue called prostaglandin H synthase (PHS). PHS has an important mechanism of action, in that after activation by hydroperoxides (such as POX), it can in turn activate the cyclooxygenase pathway leading to vasodilation.

The nature of experiment [3]: In-vivo study of mannitol (not further described). Here is the method:
Ethyl gallate is added to food as an antioxidant. It is the ethyl ester of gallic acid. Though found naturally in a variety of plant sources including walnuts (8), ethyl gallate is produced from gallic acid and ethanol (9). […] Thus, ethyl gallate, methyl gallate, and ethyl 3,4 dihydroxybenzoate has unique properties for the treatment of septic shock. It is of note that if a substance could not inhibit lysozyme's effect in-vitro, then it would be worthless to pursue an in-vivo study.

Another experiment deals with T2, catalase (Homo sapiens, UniProt P04040).
T2 sequence (P04040 2-527 limits assumed): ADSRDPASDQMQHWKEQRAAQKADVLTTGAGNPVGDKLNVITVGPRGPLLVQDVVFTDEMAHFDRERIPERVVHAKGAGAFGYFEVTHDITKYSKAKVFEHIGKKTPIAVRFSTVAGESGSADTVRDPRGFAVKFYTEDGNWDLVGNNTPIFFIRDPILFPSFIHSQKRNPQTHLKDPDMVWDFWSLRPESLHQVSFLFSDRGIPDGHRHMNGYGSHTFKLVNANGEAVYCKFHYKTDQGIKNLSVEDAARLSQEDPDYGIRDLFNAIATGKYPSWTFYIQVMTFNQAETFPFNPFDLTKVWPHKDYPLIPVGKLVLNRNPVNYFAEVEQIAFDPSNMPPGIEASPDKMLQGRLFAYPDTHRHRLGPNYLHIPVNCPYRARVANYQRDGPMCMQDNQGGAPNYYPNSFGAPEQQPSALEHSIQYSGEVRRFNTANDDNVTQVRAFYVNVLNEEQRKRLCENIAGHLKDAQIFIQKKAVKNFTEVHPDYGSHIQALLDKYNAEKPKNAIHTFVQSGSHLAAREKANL
Kind of experiment: Conversion of catalase to compound I (wave-scan spectroscopy). Type of experiment: biochemical. The source says: (§1) This generation appears to involve the mechanism described by Wentworth et al in which proteins can utilize water as a catalyst to generate H2O2 (12) Once formed by lysozyme, H2O2 then reacts with intrinsic catalase to form a species of catalase termed Compound I (2) Compound I then acts to generate cyclic-guanosine monophosphate which in turn causes vasodilation. […] These as well as other mechanisms may account for the efficacy of ethyl-gallate treatment in septic shock.

Experiment [4] can be described thus: Hydrogen peroxide scavenging (Amplex Red assay, electrochemical techniques, glucosidase/glucose assay). As to conditions: multiple methodologies. Type of experiment: biochemical.
Excerpt: as §1

Consider `C=C(C)[C@H]1CC=C(C)CC1` [limonene], for which the “block of lysozyme's vasodilatory effect” value in experiment [1] is “failed to block”. The same measure, in the same setting: with `CC(=O)N[C@@H](CS)C(=O)O` [N-acetylcyteine] the entry was “failed to block”. Take `C[S+](C)[O-]` [DMSO]: the “inhibition of lysozyme-induced hydrogen peroxide generation” value at lysozyme is “do not inhibit”. For `O=C1O[C@H]([C@@H](O)CO)C([O-])=C1O.[Na+]` [sodium ascorbate], the “block of lysozyme's vasodilatory effect” value in experiment [1] is listed as “failed to block”.

`CC(/C=C/C=C(\C)C(=O)O[C@@H]1O[C@H](CO[C@@H]2O[C@H](CO)[C@@H](O)[C@H](O)[C@H]2O)[C@@H](O)[C@H](O)[C@H]1O)=C\C=C\C=C(C)\C=C\C=C(/C)C(=O)O[C@@H]1O[C@H](CO[C@@H]2O[C@H](CO)[C@@H](O)[C@H](O)[C@H]2O)[C@@H](O)[C@H](O)[C@H]1O` [crocin]: the “block of lysozyme's vasodilatory effect” value in experiment [1] is given as “failed to block”. Still for that read-out and setting: as for `COc1ccccc1O` [guaicol], the entry is “failed to block”. Consider `[Ba]` [barium], for which the “inhibition of vasodilation caused by POX” value in experiment [2] is “could be prevented”. For `O=C(O[C@@H]1Cc2c(O)cc(O)cc2O[C@@H]1c1ccc(O)c(O)c1)c1cc(O)c(O)c(O)c1` [epicathechin gallate], the “block of lysozyme's vasodilatory effect” value in experiment [1] was “failed to block”.

As to `O=C(O[C@@H]1Cc2c(O)cc(O)cc2O[C@@H]1c1cc(O)c(O)c(O)c1)c1cc(O)c(O)c(O)c1` [epigalloccatechin gallate], in experiment [1], the “block of lysozyme's vasodilatory effect” value was “failed to block”.

For `O=C([O-])c1ccccc1.[Na+]` [sodium benzoate], the “block of lysozyme's vasodilatory effect” value in experiment [1] is “failed to block”. On the same count and under the same terms, as for `COC(=O)c1cc(O)c(O)c(O)c1` [methyl gallate], the entry is “blocked”; as for `COc1cc(/C=C/C(=O)CC(=O)/C=C/c2ccc(O)c(OC)c2)ccc1O` [curcumin], “failed to block”. On the same count and under the same terms, as for `O.O.O=c1c(O)c(-c2ccc(O)c(O)c2)oc2cc(O)cc(O)c12` [quercetin dihydrate], the entry is “failed to block”; as for catechin gallate, “failed to block”.

As to `OC[C@@H](O)[C@@H](O)[C@H](O)[C@H](O)CO` [mannitol], the effect in-vivo result in experiment [3] is listed as “did not have a positive effect”. Moreover, the “inhibition of lysozyme-induced hydrogen peroxide generation” value against lysozyme is “do not inhibit”. Besides, the “block of lysozyme's vasodilatory effect” value in experiment [1] is reported as “worked”. As for `CCOC(=O)c1ccc(O)c(O)c1` [ethyl 3,4-dihydroxybenzoate], the “block of lysozyme's vasodilatory effect” value in experiment [1] was “blocked”. Consider `O=C(O)c1cc(O)c(O)c(O)c1` [gallic acid, reference compound], for which the “inhibition of degradation of catalase to compound I” value on catalase is “can also prevent”. Besides, in experiment [4], the “scavenging of hydrogen peroxide” value is given as “can scavenge”. Moreover, in experiment [1], the “block of lysozyme's vasodilatory effect” value is listed as “could not block; also recorded: failed to block”. For `COc1ccc2c(c1)c(CC(=O)O)c(C)n2C(=O)c1ccc(Cl)cc1` [indomethacin], in experiment [2], the “inhibition of vasodilation caused by POX” value is listed as “could be inhibited”. On to `[K+]` [potassium], for which the “inhibition of vasodilation caused by POX” value in experiment [2] is “could be prevented”. As for `CCCOC(=O)c1cc(O)c(O)c(O)c1` [propyl gallate], the “block of lysozyme's vasodilatory effect” value in experiment [1] is reported as “failed to block”. Same read-out and setting: as for `N[C@@H](CCC(=O)N[C@@H](CS)C(=O)NCC(=O)O)C(=O)O` [reduced glutathione], the entry is “failed to block”; as for `O=c1cc(-c2ccc(O)c(O)c2)oc2cc(O)cc(O)c12` [luteolin], “failed to block”. As for `O=c1oc2c(O)c(O)cc3c(=O)oc4c(O)c(O)cc1c4c23` [ellagic acid], in experiment [1], the “block of lysozyme's vasodilatory effect” value is reported as “failed to block”.
